Key:
Assay in all cases: cell viability (% survival relative to DMSO control, bortezomib = 0%); higher = less cytotoxic
Settings in all cases: 72 h
HEL = system: HEL
Procedure, shortened: (§1)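 Reported values are percent survival from duplicate wells, averaged. Fifteen myeloid leukaemia cell lines were treated in 384-well plates with compounds at 1, 10, 100, 1000 or 10000 nM for 72 h at 37 °C in 5% CO2. Signals from CellTiter-Glo luminescence were scaled with vehicle as 100% and a 10 µM positive control as 0%.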

MV4-11 = system: MV4-11
Procedure, shortened: as §1

Mono-Mac-6 = system: Mono-Mac-6
Procedure, shortened: as §1

NOMO-1 = system: NOMO-1
Procedure, shortened: as §1

CCOC(=O)[C@H]1O[C@@H]1C(=O)N[C@@H](CC(C)C)C(=O)NCCC(C)C [Aloxistatin]
cell viability (HEL; 1 nM): 111% | cell viability (HEL; 10 nM): 102% | cell viability (HEL; 100 nM): 106% | cell viability (HEL; 1000 nM): 96.2% | cell viability (HEL; 10000 nM): 88.2% | cell viability (MV4-11; 1 nM): 99.1% | cell viability (MV4-11; 10 nM): 104% | cell viability (MV4-11; 100 nM): 110% | cell viability (MV4-11; 1000 nM): 97.8% | cell viability (MV4-11; 10000 nM): 87.8% | cell viability (Mono-Mac-6; 1 nM): 97.3% | cell viability (Mono-Mac-6; 10 nM): 108% | cell viability (Mono-Mac-6; 100 nM): 104% | cell viability (Mono-Mac-6; 1000 nM): 89% | cell viability (Mono-Mac-6; 10000 nM): 81.7% | cell viability (NOMO-1; 1 nM): 96.2% | cell viability (NOMO-1; 10 nM): 109% | cell viability (NOMO-1; 100 nM): 100% | cell viability (NOMO-1; 1000 nM): 96.2% | cell viability (NOMO-1; 10000 nM): 24.4%

N[C@](CCCCB(O)O)(CCN1CCCCC1)C(=O)O [Arginase inhibitor 1]
cell viability (HEL; 1 nM): 109% | cell viability (HEL; 10 nM): 96.7% | cell viability (HEL; 100 nM): 101% | cell viability (HEL; 1000 nM): 90.4% | cell viability (HEL; 10000 nM): 95.4% | cell viability (MV4-11; 1 nM): 101% | cell viability (MV4-11; 10 nM): 92.3% | cell viability (MV4-11; 100 nM): 103% | cell viability (MV4-11; 1000 nM): 92.4% | cell viability (MV4-11; 10000 nM): 84.9% | cell viability (Mono-Mac-6; 1 nM): 101% | cell viability (Mono-Mac-6; 10 nM): 83.8% | cell viability (Mono-Mac-6; 100 nM): 93.1% | cell viability (Mono-Mac-6; 1000 nM): 93.8% | cell viability (Mono-Mac-6; 10000 nM): 94.5% | cell viability (NOMO-1; 1 nM): 91.3% | cell viability (NOMO-1; 10 nM): 94.5% | cell viability (NOMO-1; 100 nM): 103% | cell viability (NOMO-1; 1000 nM): 96.4% | cell viability (NOMO-1; 10000 nM): 93.9%

Cc1noc2c1-c1ccccc1C(c1ccc(Cl)cc1)=N[C@H]2CC(N)=O [CPI-0610]
cell viability (HEL; 1 nM): 103% | cell viability (HEL; 10 nM): 98.5% | cell viability (HEL; 100 nM): 114% | cell viability (HEL; 1000 nM): 74.5% | cell viability (HEL; 10000 nM): 18.5% | cell viability (MV4-11; 1 nM): 86.1% | cell viability (MV4-11; 10 nM): 84% | cell viability (MV4-11; 100 nM): 57.2% | cell viability (MV4-11; 1000 nM): 3.4% | cell viability (MV4-11; 10000 nM): 1.28% | cell viability (Mono-Mac-6; 1 nM): 99.7% | cell viability (Mono-Mac-6; 10 nM): 89.3% | cell viability (Mono-Mac-6; 100 nM): 65.7% | cell viability (Mono-Mac-6; 1000 nM): 17% | cell viability (Mono-Mac-6; 10000 nM): 15.9% | cell viability (NOMO-1; 1 nM): 102% | cell viability (NOMO-1; 10 nM): 96.3% | cell viability (NOMO-1; 100 nM): 79% | cell viability (NOMO-1; 1000 nM): 33.6% | cell viability (NOMO-1; 10000 nM): 11.7%

Nc1ccn([C@@H]2O[C@H](CO)[C@@H](O)[C@@H]2O)c(=O)n1 [Cytarabine]
cell viability (HEL; 1 nM): 104% | cell viability (HEL; 10 nM): 95.2% | cell viability (HEL; 100 nM): 19.6% | cell viability (HEL; 1000 nM): -0.409% | cell viability (HEL; 10000 nM): 1.24% | cell viability (MV4-11; 1 nM): 103% | cell viability (MV4-11; 10 nM): 89.2% | cell viability (MV4-11; 100 nM): 84.2% | cell viability (MV4-11; 1000 nM): 34.4% | cell viability (MV4-11; 10000 nM): 0.163% | cell viability (Mono-Mac-6; 1 nM): 95.1% | cell viability (Mono-Mac-6; 10 nM): 86.4% | cell viability (Mono-Mac-6; 100 nM): 79.8% | cell viability (Mono-Mac-6; 1000 nM): 19.1% | cell viability (Mono-Mac-6; 10000 nM): 3.49% | cell viability (NOMO-1; 1 nM): 107% | cell viability (NOMO-1; 10 nM): 105% | cell viability (NOMO-1; 100 nM): 89.6% | cell viability (NOMO-1; 1000 nM): 78.1% | cell viability (NOMO-1; 10000 nM): 9.44%

CCOc1ccc(Cc2cc([C@@H]3O[C@H](CO)[C@@H](O)[C@H](O)[C@H]3O)ccc2Cl)cc1 [Dapagliflozin]
cell viability (HEL; 1 nM): 99.9% | cell viability (HEL; 10 nM): 102% | cell viability (HEL; 100 nM): 75.6% | cell viability (HEL; 1000 nM): 97.7% | cell viability (HEL; 10000 nM): 122% | cell viability (MV4-11; 1 nM): 93.7% | cell viability (MV4-11; 10 nM): 106% | cell viability (MV4-11; 100 nM): 94.3% | cell viability (MV4-11; 1000 nM): 94.6% | cell viability (MV4-11; 10000 nM): 86.9% | cell viability (Mono-Mac-6; 1 nM): 91.5% | cell viability (Mono-Mac-6; 10 nM): 95.1% | cell viability (Mono-Mac-6; 100 nM): 87.5% | cell viability (Mono-Mac-6; 1000 nM): 91.7% | cell viability (Mono-Mac-6; 10000 nM): 88.8% | cell viability (NOMO-1; 1 nM): 95.2% | cell viability (NOMO-1; 10 nM): 101% | cell viability (NOMO-1; 100 nM): 88.1% | cell viability (NOMO-1; 1000 nM): 104% | cell viability (NOMO-1; 10000 nM): 97%

CCN(CC)CCN(Cc1ccc(-c2ccc(C(F)(F)F)cc2)cc1)C(=O)Cn1c(SCc2ccc(F)cc2)nc(=O)c2c1CCC2 [Darapladib]
cell viability (HEL; 1 nM): 99.5% | cell viability (HEL; 10 nM): 103% | cell viability (HEL; 100 nM): 105% | cell viability (HEL; 1000 nM): 91.1% | cell viability (HEL; 10000 nM): -0.527% | cell viability (MV4-11; 1 nM): 88.5% | cell viability (MV4-11; 10 nM): 104% | cell viability (MV4-11; 100 nM): 87.8% | cell viability (MV4-11; 1000 nM): 102% | cell viability (MV4-11; 10000 nM): -0.522% | cell viability (Mono-Mac-6; 1 nM): 97% | cell viability (Mono-Mac-6; 10 nM): 90.9% | cell viability (Mono-Mac-6; 100 nM): 101% | cell viability (Mono-Mac-6; 1000 nM): 93.3% | cell viability (Mono-Mac-6; 10000 nM): -0.318% | cell viability (NOMO-1; 1 nM): 98.6% | cell viability (NOMO-1; 10 nM): 98.8% | cell viability (NOMO-1; 100 nM): 97% | cell viability (NOMO-1; 1000 nM): 93.8% | cell viability (NOMO-1; 10000 nM): -0.418%

Source: the supplement of paper PMC8671470
